US7083814B2, “Antiviral substances from plant cuticular and epicuticular material” (Rutgers, The State University of New Jersey, priority 2000, dated 2006)

Columns and labels:
HIV-1RF = experiment: Anti-HIV-1 Cytoprotection Assay (XTT); conditions: AZT control
[1] = tested on: herpes simplex virus type 1 strain HF; experiment: Anti-HSV-1 Cytoprotection Assay (CPE reduction, MTS)
in vitro = conditions: African green monkey
From the text: Anti-HSV-1 Cytoprotection Assay.

Compound | positive control result (HIV-1RF) | IC50 ([1]; Human alphaherpesvirus 1) [nM] | IC50 ([1]; Human alphaherpesvirus 1, Vero) [nM] | IC50 (in vitro) [nM]
Cc1cn([C@H]2C[C@H](N=[N+]=[N-])[C@@H](CO)O2)c(=O)[nH]c1=O [AZT] | within the expected parameters | – | – | –
Nc1nc2c(ncn2COCCO)c(=O)[nH]1 [Acyclovir] | – | 2400 | 2400 | > 100000
